The values below come from patent US20250049747A1, “USE OF HYPERPOLARIZING AGENTS ALONE AND IN COMBINATION WITH OTHER THERAPEUTIC AGENTS FOR TREATING CANCERS INCLUDING GLIOBLASTOMA” (Trustees of Tufts College, priority 2021, published 2025).

Where “and” joins values, the source holds several entries; their conditions need not be identical. Identical values can stand only once.

In general, Cmax refers to the highest concentration seen after dosing.

The test system of data set [1] is NG108-15 cells. The data set can be described thus: Antibody staining, BrdU and senescence assays in NG108-15 cells. Format: cell-based, mouse/rat. Conditions: NG108-15, 6 days. As to the method: Antibody Staining, BrdU and Senescence Assays. NG108-15 cells were plated on PEI and Matrigel coated plates at 15,000 or 30,000 cells/mL, U87 cells at 10,000 cells/mL and grown in imaging media for 6 days with drug treatment. Fresh media was added every 2 days. On day 6, cells were fixed with 4% formaldehyde in PBS for 30 minutes for all antibody staining, except for BrdU which was fixed for 15 minutes, and for the senescence assay which was fixed for 20 min using the Senescence Beta-Galactosidase Staining Kit (9860, CellSignaling) and thereafter stained according to manufacturer's protocol. After fixing, cells were washed twice with PBS, and were permeabilized in PBS with 0.3% Triton-X for 15 min then washed again twice with PBS. The cells for the BrdU assay were additionally treated with 1N HCl for 10 min on ice, followed by a treatment with 2N HCl for 50 min at room temp. Cells were then blocked with standard blocking buffer comprised of TBS containing 10% goat serum, 0.1% BSA, and with 0.05% Tween 20 or without detergent for antibodies against phosphorylated proteins or monoclonal antibodies except for Anti-YAP and Anti-BrdU staining, which were done according to manufacturer's protocol. Primary antibodies were added at the following concentrations: 1:250 anti-S100 beta (GTX129573, Genetex), 1:500 anti-GFAP (AB5804, EMD-Millipore), 1:300 anti-SOX10 (ab155279, Abcam), 1:100 MAP2 (4542, CellSignaling), 1:400 anti-cleaved caspase 3 (9661, CellSignaling), 1:300 anti-Cx43 (STJ2411, St. John's Labratory), 1:800 anti-p27^Kip1 (3698, CellSignaling), 1:150 anti-BrdU (5292, CellSignaling), 1:125 anti-LC3-II (2775, CellSignaling), 8 μg/mL anti-04 (MAB1326, R&D Systems), 1:1000 anti-TH (RPCA-TH, Encor), 1:4000 anti-NSE (RPCA-NSE, Encor), 1:4000 anti-NFM (RPCA-NF-M, Encor), 0.5 μg/mL anti-TujI (801202, Biolegend), 1:400 anti-NF-KB p65 (8242, CellSignaling), 1:125 anti-phospho CREB (05-807, EMD-Millipore), 1:250 anti-vimentin (ab92547, Abcam), 1:125 anti-YAP (14074, CellSignaling). Antibodies were diluted in their respective blocking buffer and incubated overnight at 4° C. The next day, cells were washed with TBS-T or TBS for 3× for 5 min each and secondary antibody was added as follows: 1:1000 donkey anti-mouse 647 (A-31571, Thermo-Fisher) or 1:1000 donkey anti-rabbit 647 (A-31573, Thermo-Fisher). Each were diluted in blocking buffer along with 2.5 μg/mL Hoechst 33342 and incubated for 1 hour at room temperature. Cells were then washed again with TBS-T or TBS for 3× for 5 min each and covered with Gelvatol. Cells were imaged with an EVOS M7000 system, with at least 50% of each well in a 96 well plate imaged and analyzed using a CellProfiler pipeline for measuring integrated intensity, mean intensity, or nuclear to cytoplasmic ratio of mean intensities.

Data set [2] has as its system U87 cells. The data set can be described thus: Antibody staining, BrdU and senescence assays in U87 cells. The class given is cell-based, human. Conditions: U87, 6 days. How it is done:
Antibody Staining, BrdU and Senescence Assays. NG108-15 cells were plated on PEI and Matrigel coated plates at 15,000 or 30,000 cells/mL, U87 cells at 10,000 cells/mL and grown in imaging media for 6 days with drug treatment. Fresh media was added every 2 days. On day 6, cells were fixed with 4% formaldehyde in PBS for 30 minutes for all antibody staining, except for BrdU which was fixed for 15 minutes, and for the senescence assay which was fixed for 20 min using the Senescence Beta-Galactosidase Staining Kit (9860, CellSignaling) and thereafter stained according to manufacturer's protocol. After fixing, cells were washed twice with PBS, and were permeabilized in PBS with 0.3% Triton-X for 15 min then washed again twice with PBS. The cells for the BrdU assay were additionally treated with 1N HCl for 10 min on ice, followed by a treatment with 2N HCl for 50 min at room temp. Cells were then blocked with standard blocking buffer comprised of TBS containing 10% goat serum, 0.1% BSA, and with 0.05% Tween 20 or without detergent for antibodies against phosphorylated proteins or monoclonal antibodies except for Anti-YAP and Anti-BrdU staining, which were done according to manufacturer's protocol. […] Cells were imaged with an EVOS M7000 system, with at least 50% of each well in a 96 well plate imaged and analyzed using a CellProfiler pipeline for measuring integrated intensity, mean intensity, or nuclear to cytoplasmic ratio of mean intensities.

The subject of data set [3] is human neuronal cells. The data set can be described thus: Live/Dead assay on human neuronal cells. Format: cell-based. Conditions: human neurons, 3 day treatment. How it is done: Human neuronal cells were differentiated from human induced neural stem cells (hiNSCs) (passage 7-10), a generous gift from David Kaplan, as described previously. Briefly, hiNSCs were grown on mouse embryonic fibroblast (MEF) feeder cells until ready to differentiate into neurons. Cells were then seeded on Poly-D-Lysine (A3890401, ThermoFisher) and laminin (L2020, Sigma) coated 96 well plates at a density of 128,000 cells/mL. Cells were differentiated in Neurobasal (12348017, ThermoFisher) media supplemented with 2% B27 (17504044, Gibco), 1% Glutamax, and 1% antibiotic-antimycotic for 7 days with media changes every 2 days. At the end of the 7 days the treatments were added in the differentiation media for 3 days.
Dye Staining Protocols. For the Live/Dead assay, 1 μM Calcein Green AM and 0.5 μM ethidium homodimer-1 (L3224, ThermoFisher) were added to PBS along with 10 μg/mL of Hoechst to make the staining solution. Half the media was removed from the human neuronal cells that had been incubated with treatments for 3 days and replaced with staining solution. […] Cells were then incubated for 15 min at 37° C. and imaged. For resting membrane potential staining, DiBAC4(3) was used. U87 cells were seeded at 10,000 cells per mL on Matrigel coated plates as described above. […] Images were then analyzed using a CellProfiler pipeline. […]

Data set [4] in a line: Reported clinical pharmacokinetics and blood-brain barrier penetrance (literature). Conditions: human, in vivo; pantoprazole 240 mg/day, if proportional to the 30 mg/day dose.

As for `O=C(Nc1cc(C(F)(F)F)ccc1O)Nc1cc(C(F)(F)F)ccc1O` [NS1643], in data set [1], the “cleaved caspase 3 staining” value is “decrease the cleaved caspase 3 positive cells significantly” and the “size of the nuclei” value was “significantly larger”.
Take `COc1ccnc(C[S+]([O-])c2nc3ccc(OC(F)F)cc3[nH]2)c1OC` (stereo not shown) [Pantoprazole, pantoprazole]: in data set [1], the BrdU incorporation entry is reported as “significant decrease”; the “S100B and GFAP markers” value is listed as “significantly upregulated”; the “cleaved caspase 3 staining” value was “significant increase in cleaved caspase 3 staining”; the “connexin 43 (Cx43) expression” value is reported as “increase in connexin 43 (Cx43) expression”. In data set [1], the “senescence-associated beta-galactosidase activity stain” value was “very significant increase” and the “size of the nuclei” value is “significantly larger”. Besides, in data set [2], the “NFM and NSE” value is “increased”; the “YAP nuclear to cytoplasmic ratio” value was “not to have a significant effect”; the astrocytic differentiation markers entry was “increased”. The “toxicity by Live/Dead stain compared to control” value in data set [3] was “slight increase in toxicity that was significant compared to control”. Also, the Cmax in data set [4] was 42000 ng/mL and ~110 µM.
